Reference: US10105367B2, “Therapeutic thiophene-, furan-, and pyridine-fused azolopyrimidin-5-(6h)-ones” (Dart Neuroscience (Cayman) Ltd., priority 2012, dated 2018)

Target: human PDE1B (Homo sapiens (Human), UniProt Q01064)
Test: PDE1B inhibitory assay (IMAP TR-FRET)
Details: 200 nM FAM-cAMP, Calmodulin, CaCl2; for IC50: PDE1B pIC50, negative log of half-maximal molar inhibitory concentration; for PDE1B pIC50: negative log of half-maximal molar inhibitory concentration
Protocol: PDE1B inhibition was determined by an IMAP TR-FRET assay.
After a brief centrifugation, the plates were incubated for 30 minutes at room temperature. The assay was terminated by adding 5 μL IMAP binding reagent/Tb complex (Molecular Devices, Sunnyvale, Calif.) to each well.
Plates were incubated 1 hour at room temperature and read on a Viewlux multimode plate reader (Perkin Elmer). The instrument was set to excite using the DUG11 filter and measure using 490/10 nm and 520/10 nm filters. Ratios of acceptor and donor were then calculated.
For IC50 calculations, the values of % efficacy versus a series of compound concentrations were then plotted using non-linear regression analysis of sigmoidal dose-response curves generated with the equation Y=B+(T−B)/1+10((Log EC50−X)×Hill Slope), where Y=percent activity, B=minimum percent efficacy, T=maximum percent efficacy, X=logarithm of compound and Hill Slope=slope factor or Hill coefficient. The IC50 value was determined by the concentration causing a half-maximal percent efficacy.

O=c1n(Cc2ccc(OC(F)(F)F)cc2)c2sc3c(c2c2ncnn12)CCOC3 [Example 96]
IC50: 1000 to 10000 nM

COc1ccc(Cn2c(=O)n3ncnc3c3c(C)c(CNC4CC4)sc32)cc1 [Example 57]
PDE1B pIC50: >7

COc1ccc(Cn2c(=O)n3ncnc3c3c(C)c(CN4C[C@@H](C)O[C@@H](C)C4)sc32)cc1 [Example 55]
PDE1B pIC50: >7

Cc1csc2c1c1ncnn1c(=O)n2Cc1ccccc1 [Example 6]
IC50: 100 to 1000 nM

COc1ccc(Cn2c(=O)n3ncnc3c3cc(CN4CC5(CCOCC5)C4)sc32)cc1 [Example 38]
PDE1B pIC50: >7

COc1ccc(Cn2c(=O)n3ncnc3c3c4c(sc32)CN(CC2CCOC2)CC4)c(F)c1 (stereo not drawn) [Example 140]
PDE1B pIC50: >7
